The source made the active and inactive calls. The calls are words filed in the database; no cut-off is given here.
How the values were obtained:
[1] = Clearance in Sprague-Dawley rat at 50 mg/kg, IG measured upto 48 hrs by LC-MS/MS analysis; type: ADME, organism-based; conditions: in vivo, po
[2] = AUC(0 to infinity) in Sprague-Dawley rat at 50 mg/kg, IG measured upto 48 hrs by LC-MS/MS analysis; type: ADME, organism-based; conditions: in vivo, po
[3] = Half-life in Sprague-Dawley rat at 50 mg/kg, IG measured upto 48 hrs by LC-MS/MS analysis; type: ADME, organism-based; conditions: in vivo, po
MDA-MB-231 [4] = experiment: Induction of T-cell mediated apoptosis in human MDA-MB-231 cells cocultured with PMA-stimulated Jurkat T cells assessed as mortality rate at 32 uM incubated for 48 hrs by CCK-8 assay; type: functional
MC-38 [5] = experiment: Antitumor activity against mouse MC38 cells expressing hPD-L1 implanted in PD-1/PD-L1 humanized C57BL/6 mouse assessed as downregulation of PD-L1 mRNA expression at 50 mg/kg, IG QD administered for 15 days by RT-PCR analysis; type: functional, organism-based; conditions: time 15.0 day
[6] = Apparent volume of distribution in Sprague-Dawley rat at 10 mg/kg, iv measured upto 48 hrs by LC-MS/MS analysis; type: ADME, organism-based; conditions: in vivo
[7] = Toxicity in PD-1/PD-L1 humanized C57BL/6 mouse implanted with mouse MC38 cells expressing hPD-L1 assessed as change in heart morphology at 50 mg/kg, IG QD administered for 15 days by H and E staining based inverted fluorescent microscopic assay; type: organism-based, MC-38; conditions: in vivo, po, 360 h, time 15 day
[8] = Toxicity in PD-1/PD-L1 humanized C57BL/6 mouse implanted with mouse MC38 cells expressing hPD-L1 assessed as animal death at 50 mg/kg, IG QD administered for 15 days; type: organism-based, MC-38; conditions: in vivo, po, 360 h, time 15 day
[9] = Toxicity in PD-1/PD-L1 humanized C57BL/6 mouse implanted with mouse MC38 cells expressing hPD-L1 assessed as change in spleen morphology at 50 mg/kg, IG QD administered for 15 days by H and E staining based inverted fluorescent microscopic assay; type: organism-based, MC-38; conditions: in vivo, po, 360 h, time 15 day
MDA-MB-231 [10] = experiment: Induction of T-cell mediated apoptosis in human MDA-MB-231 cells cocultured with PMA-stimulated Jurkat T cells assessed as mortality rate at 4 uM incubated for 48 hrs by CCK-8 assay; type: functional
[11] = Toxicity in PD-1/PD-L1 humanized C57BL/6 mouse implanted with mouse MC38 cells expressing hPD-L1 assessed as hepatotoxicity at 50 mg/kg, IG QD administered for 15 days; type: organism-based, MC-38; conditions: in vivo, po, 360 h, time 15 day
A549 = experiment: Induction of T-cell mediated apoptosis in human A549 cells cocultured with PMA-stimulated Jurkat T cells assessed as mortality rate at 1 to 32 uM incubated for 48 hrs by CCK-8 assay; type: functional, cell-based; conditions: dose 1-32 µM
HCC827 = experiment: Cytotoxicity against human HCC827 cells at 1 to 32 uM incubated for 48 hrs by CCK-8 assay; type: functional, cell-based; conditions: dose 1-32 µM
[12] = Clearance in Sprague-Dawley rat at 10 mg/kg, iv measured upto 48 hrs by LC-MS/MS analysis; type: ADME, organism-based; conditions: in vivo
MC-38 [13] = experiment: Antitumor activity against mouse MC38 cells expressing hPD-L1 implanted in PD-1/PD-L1 humanized C57BL/6 mouse assessed as increase in ratio of CD3+/CD8+ to CD3+/CD4+ cells at 50 mg/kg, IG QD administered for 15 days by flow cytometry analysis; type: functional, organism-based; conditions: time 15.0 day

`N#Cc1cncc(COc2cc(OCc3cccc(-c4ccc5c(c4)OCCO5)c3C(F)F)ccc2CNCCO)c1` showed a CL [1] of 19.8 mL/min/kg, an AUC(0-inf) [2] of 42000 ng·h/mL and a t1/2 [3] of 5.52 h. The Activity (MDA-MB-231 [4]) was 64%, the Activity (MC-38 [5]) was “Active” and the Vz [6] was 10.1 L/kg. The Activity [7] was “Non-Toxic”, the Activity [8] was “Non-Toxic” and the Activity [9] was “Non-Toxic”. The Activity (MDA-MB-231 [10]) was 40.6%, the Activity [11] was “Non-Toxic” and the Activity (A549) was “inactive”. For the same molecule, the Activity (HCC827) was “inactive”, the CL [12] was 12 mL/min/kg and the Activity (MC-38 [13]) was “Active”.
